This note sets out measurements from patent US20020025312A1, “BIFUNCTIONAL WATER-SOLUBLE POLYMER DERIVATIVE AND COMPLEX CONTAINING IT” (priority 1997, published 2002).

The conditions of this data set: 2 mg/kg as adriamycin, tail vein, male BALB/c mouse.

Method: To compare retention in blood of the respective liposomes, 2 mg/kg as the amount of adriamycin was administered from the tale vein to a male BALB/c mouse. After each period of time, the mouse was killed, and the plasma was collected. The amount of adriamycin was quantitatively analyzed by measuring fluorescence after extraction with hydrochloric acid/ethanol in accordance with a method of Konno et al. (Cancer Res. 47 4471 (1987)).
Accordingly, the amount of detected adriamycin is considered to reflect the behavior as the relevant liposome.

As for `COc1cccc2c1C(=O)c1c(O)c3c(c(O)c1C2=O)C[C@@](O)(C(=O)CO)C[C@@H]3O[C@H]1C[C@H](N)[C@H](O)[C@H](C)O1` [free adriamycin, adriamycin], the “retention in blood (concentration of adriamycin in blood plasma)” value is “disappeared from blood swiftly after the administration”.
